Results published in patent US8865653B2, “Method of treatment for immunogenic treatment resistant cancer” (Institut Gustave Roussy, priority 2010, dated 2014).

Tests used:
[1] = test system: U2OS cells stably expressing CRT-GFP; experiment: CRT-GFP redistribution (granularity, nuclear shape) by automated microscopy; ICCB library screen; type: cell-based, human
Method: The data is depicted as mean±s.e.m. of quadruplicates from a representative experiment. (C) Immunofluorescene was conducted on CRT-GFP expressing cells by means of staining with anti-CRT antibody and subsequent confocal image acquisition. (D) CRT has been cloned in frame n-terminal to a HaloTag® sequence followed by a KDEL ER retention signal. (E) The impermeable HaloTag® ligand forms covalent bonds exclusively with surface exposed HaloTag®-CRT fusion protein, whereas intracellular HaloTag®-CRT remains undetected.
Compounds from the ICCB known bioactive compounds library have been tested for their capacity to induce CRT-exposure. […] The cells were incubated for 4 h and were acquired by means of automated microscopy. The data is depicted as dot plots and representative images (B).
After washing with PBS 4 viewfields per well were acquired by means of a BD pathway 855 automated microscope.

U2OS cells [2] = type: cell-based
Method: The data is depicted as representative images (A) and (B) normalized Bax-GFP granularity values.
The data represents mean±s.e.m. of quadruplicates from a representative experiment. […] 16 h after treatment, cell death was monitored by simultaneous staining with 3,3 dihexyloxacarbocyanine iodide (DiOC6(3)) and propidium iodide (PI), and the percentage of dying (DiOC6(3)^low PI^−, open bars) and dead (DiOC6(3)^low PI^+, closed bars) cells was determined by cytofluorometry.
Cell death was quantified by cytofluorometric analysis using a FACS Vantage (Becton Dickinson, Mountain View, USA) as described previously (REF). Thus, cells were stained with 40 nM 3,3 dihexyloxacarbocyanine iodide (DiOC6(3); Molecular Probes, Eugene, Oreg., USA) for 30 min at 37° C. and concomitantly with 1 μg/ml propidium iodide (PI; Sigma Aldrich) for 30 min at 37° C. to determine the mitochondrial transmembrane potential. Data were statistically evaluated using CellQuest Pro software (Becton Dickinson, Mountain View, USA).

U2OS cells [3] = experiment: ATP release assays (quinacrine, luciferin-based); type: cell-based, human; conditions: 16 h post-treatment, intracellular and extracellular ATP
Method: In short, cells were labeled with 1 μM quinacrine in Krebs-Ringer solution (125 mM NaCl, 5 mM KCl, 1 mM MgSO4, 0.7 mM KH2PO4, 2 mM CaCl2, 6 mM glucose and 25 mM Hepes, pH 7.4) for 30 min at 37° C.
After incubation in quinacrine solution (as described above), cells were rinsed and resuspended in PBS containing 1 μg/ml PI. The samples were analyzed by means of a FACS Vantage (Becton Dickinson) and the data was statistically evaluated using the CellQuest Pro software (BD Biosciences).
(§1) After cell death induction, extracellular ATP was measured by luciferin-based ENLITEN ATP Assay (Promega, Madison, USA) following the manufacturer's instructions. Intracellular ATP was measured using an ATP Assay kit (Calbiochem, Darmstadt, Germany) based on luciferin-luciferase conversion following the manufacturer's instructions. For assessment of the chemoluminescent signal, the plates were read in a Fluostar luminometer (BMG Labtech).

eIF2α = experiment: Immunoblotting of eIF2α / PERK phosphorylation; type: cell-based
Description: (E) The phosphorylation status of eIF2α has been assessed by immunoblotting against the phosphoneoepitope Ser51 of eIF2α by means of a monoclonal antibody. A polyclonal antibody has been used to visualize whole eIF2α protein levels.

MCA205 cells [4] = experiment: In vivo anti-tumor vaccination with treated MCA205 cells (Example 3); conditions: s.c. injection, rechallenge with live tumor cells
Method: (F) MCA205 cells have been used for tumor vaccination in vivo. […] The mice have been rechallenged after 6 days with living cells and the tumor growth is depicted in the survival plot (n=10).
Tumor growth was evaluated for at least 50 days.

U2OS cells [5] = experiment: Analysis of surface exposed CRT (HaloTag ligand, anti-CRT immune staining)
MCA205 cells [6] = conditions: Martins I et al, Oncogene 2010; cited from earlier work
U2OS cells [7] = experiment: US Drug library screen: CRT-GFP, HMGB1-GFP, quinacrine; conditions: 1 μM, 4 h / 24 h / 16 h
LN resident γδ T cells = experiment: Cytokine stimulation of LN-derived γδ T cells (IL-17); type: cell-based, mouse
Method: (A-B) Cocultures of naïve LNs derived γδ T (A-B) or TCR δ^−T (A) cells in the presence of recombinant mouse cytokines (1 μg/ml IL-1β or/and IL-23, 5 μg/ml TGF-β, 10 μg/ml IL-6) (A) with or without TCR cross-linking with anti-CD3ε mAb pre-coated plates (5 μg/ml, Clone 145-2C11) (B).
Naïve C57Bl/6 mice aged between 8-10 weeks were sacrificed and the skin-draining lymph nodes (LNs) including inguinal, popliteal, superficial cervical, axillary and brachial LNs were collected. LNs were squeezed with tweezers gently in digesting buffer, kept at 37° C. for 20 min and then pass through […] cell strainer to get single cell suspension. Dead cells were removed using Dead Cell Removal Kit (Miltenyi Biotec) before purifying γδ T cells with TCRγ/δ^+ T Cell Isolation Kit (Miltenyi Biotec). An autoMACS™ Separator was used with the recommended programs. Purity of this isolation normally reached 95%. The TCR δ^− CD3^+ cells fraction was also collected from the final separation step and was called ‘non γδ T’ cells for some experiments. Day 2 after DX or PBS treatment, 2.5×10^5 cells were injected directly into the tumor with insulin syringes in adoptive transfer setting.

U2OS cells [8] = experiment: CRT exposure by anti-CRT surface staining and FACS (Example 4); type: cell-based, human; conditions: for CRT exposure: dose dependent fashion, nanomolar range; for effect of antioxidant on CRT exposure upon Digoxin and Digitoxin treatment: NAC and GSH pretreated U2OS cells
Method: (D) Cardiac glycosides at 1 μM have been analysed for CRT exposure by means of anti-CRT surface staining and FACS quantification.
(F) U2OS cells treated with the indicated doses of Digoxin and Digitoxin were analyzed for CRT exposure by means of FACS quantified surface staining.

U2OS cells [9] = experiment: HMGB1 release ELISA; type: cell-based, human; conditions: 24 h, dose dependent fashion, nanomolar range
Method: U2OS cells were seeded in 6 well plates 24 h before the experiment. The medium was changed to fresh DMEM before the treatment was applied. Supernatants were collected at 24 h post treatment, dying tumor cells were removed by centrifugation and supernatants were collected and shock frozen in liquid nitrogen. Quantification of HMGB1 in the collected supernatants was performed by enzyme-linked immunosorbent assay according to the manufacturer's instructions.

U2OS cells [10] = experiment: ATP release ENLITEN assay (Example 4); type: cell-based, human; conditions: 15 h, dose dependent fashion, nanomolar range
Method: (H) ATP release was quantified by ENLITE 15 h after treatment in the supernatant of cells.
as §1

γδ T cells = experiment: DC-tumor mixed lymphocyte cultures (IL-1β, IL-17A ELISA); type: cell-based, mouse; conditions: 20 μg/ml IL-1RA
Method: (D) DX-treated MCA205 loaded DC/γδ T cell cross-talk was also performed in the presence of 20 μg/ml IL-1RA (Amgen) or anti-IL-23 or IL-23R neutralizing antibodies or 10 μg/ml IL-18BP or 20 μM CH-223191. IL-1β and IL-17A release was measured at 48 hrs in ELISA.
DC were propagated in Iscoves's medium (Sigma Aldrich) supplemented with J558 supernatant, 100 UI/ml Penicillin, 100 μg/ml Streptomycin, 2 mM L-glutamine, 50 μM 2-mercaptoethanol (Sigma), 10% heat-inactivated and filtered, 10% FCS and 40 ng/ml GM-CSF. DC were used between day 8 and 12 when the proportion of CD11c/MHC class II+ cells was >80%. In mixed cocultures, DC were seeded at 10^5/100 μl/well in U bottom 96 well plates. Tumor cells were treated with 25 μM DX or 2 μM MTX for 16 hrs, washed in PBS and added into these wells at 7.5×10^5/100 μl/well. 2×10^4/50 μl γδ T cells were added into the wells 12 hrs later. Supernatant was collected 48 hrs later.

MCA205 cells [11] = experiment: In vivo anti-tumor vaccination with MitoC / Digoxin treated MCA205 cells; parameters: species or system mice; conditions: for vaccination with cells treated with digoxin alone: single treatment
breast cancer = experiment: Retrospective clinical study, digoxin during chemotherapy; type: in vivo, human
Method: (D) D1: Overall survival of 150 breast cancer patients. 50 digoxin cotreated patients are opposed by 100 non digoxin treated controls.
We retrospectively constructed a patient database using data obtained from Institut Gustave Roussy. The patients were divided into the digoxin receiving and into the control group. For each digoxin receiving patient two control patients with identical tumor grade and chemotherapeutic treatment have been chosen. All digoxin receiving patients were treated with digoxin while receiving chemotherapy. Age at diagnosis, pathological tumor size, lymph node involvement, tumor grade, hormone receptors, endocrine treatments, occurrence of events and follow-up were extracted from medical files and recorded in the database. After generation of the patient database statistical analyses were performed in a blinded fashion. Survival rates were estimated using the Kaplan-Meier method.

## [NH2][Pt]([NH2])([Cl])[Cl] [CDDP, cisplatin]
[1]; 1 μM MTX, 150 μM CDDP, 300 μM OXP
  CRT-GFP granularity (relocation to peripheral granular distribution): not after treatment with CDDP
[1]; as efficiently as MTX or OXP
  chromatin condensation (nuclear apoptosis): able to induce chromatin condensation
U2OS cells [2]; short-term experiments, loss of the mitochondrial transmembrane potential ΔΨm, read-out: IC50, imminent cell death
  IC50: ~150 µM
U2OS cells [2]; used at their IC50
  mitochondrial perturbations (ΔΨm dissipation, Bax-GFP relocation): induced similar mitochondrial perturbations
U2OS cells [3]
  ATP release: induced ATP release
eIF2α; phospho-neoepitope-specific antibody
  eIF2α phosphorylation on serine 51: unable to activate
eIF2α; shortly after treatment
  activating phosphorylation of PERK: not CDDP
MCA205 cells [4]
  protective anticancer immune response after vaccination with drug-treated MCA205 cells: inefficient in inducing a protective anticancer immune response
U2OS cells [5]; cell-impermeable HaloTag ligand, microscopy and cytofluorometry
  surface exposure of CRT-HaloTag: failed to induce the surface exposure
U2OS cells [5]; non-permeabilized CRT-GFP cells
  surface immunofluorescence staining of CRT: no immunodetectable CRT was found on the surface

## tunicamycin
MCA205 cells [6]
  immunogenic cell death when combined with cisplatin: could induce immunogenic cell death when combined with cisplatin

## COc1cccc2c1C(=O)c1c(O)c3c(c(O)c1C2=O)C[C@@](O)(C(=O)CO)C[C@@H]3O[C@H]1C[C@H](N)[C@@H](O)[C@H](C)O1 [epirubicin]
U2OS cells [7]
  rank in screen for exposing CRT and emitting HMGB1 and ATP: most potent in exposing CRT, and emitting HMGB1 and ATP

## TGF-β
LN resident γδ T cells
  IL-17 production by LN-resident γδ T cells in response to recombinant cytokines: failed to produce IL-17

## C[C@H]1O[C@@H](O[C@H]2[C@@H](O)C[C@H](O[C@H]3[C@@H](O)C[C@H](O[C@H]4CC[C@@]5(C)[C@H](CC[C@@H]6[C@@H]5CC[C@]5(C)[C@@H](C7=CC(=O)OC7)CC[C@]65O)C4)O[C@@H]3C)O[C@@H]2C)C[C@H](O)[C@@H]1O [digitoxin]
U2OS cells [8]
  CRT exposure: induce CRT exposure
U2OS cells [9]
  HMGB1 release: HMGB1 release
U2OS cells [10]
  ATP release: ATP release

## CC(=O)N[C@@H](CS)C(=O)O [NAC]
U2OS cells [8]
  effect of antioxidant on CRT exposure upon Digoxin and Digitoxin treatment: significantly diminished CRT exposure

## IL-1RA: IL-1R1/IL-1β antagonist (Amgen)
γδ T cells
  IL-1β production in DC/γδ T cell co-culture: not modified
γδ T cells; DX-treated MCA205 loaded DC, 48 hrs
  DC/γδ T cell cross-talk (IL-17 production) in the presence of dying cells: entirely abrogated the DC/γδ T cell cross-talk

## C[C@H]1O[C@@H](O[C@H]2[C@@H](O)C[C@H](O[C@H]3[C@@H](O)C[C@H](O[C@H]4CC[C@@]5(C)[C@H](CC[C@@H]6[C@@H]5C[C@@H](O)[C@]5(C)[C@@H](C7=CC(=O)OC7)CC[C@]65O)C4)O[C@@H]3C)O[C@@H]2C)C[C@H](O)[C@@H]1O [digoxin]
U2OS cells [8]
  CRT exposure: induce CRT exposure
U2OS cells [9]
  HMGB1 release: HMGB1 release
U2OS cells [10]
  ATP release: ATP release
MCA205 cells [11]; 20 μM MitoC with 30 μM Digoxin O/N, immunocompetent mice, rechallenge after 6 days
  vaccinating effect, MCA cells cotreated with digoxin and MitoC: kept living cells of the same kind from forming a tumor
MCA205 cells [11]
  vaccination with cells treated with digoxin alone: led to tumor formation at the vaccination site
MCA205 cells [11]; listed as Digoxin
  vaccination with cells treated with digoxin alone: did not preclude the living cells from forming a tumor after rechallenge
Breast cancer; 20 digoxin cotreated vs 40 controls
  overall survival effect of digoxin, anthracyclin based chemotherapy subgroup: completely disappears
Breast cancer; 50 digoxin cotreated vs 100 controls
  overall survival of patients that received digoxin during chemotherapy: increased overall survival

## N[C@@H](CCC(=O)N[C@@H](CS)C(=O)NCC(=O)O)C(=O)O [GSH]
U2OS cells [8]
  effect of antioxidant on CRT exposure upon Digoxin and Digitoxin treatment: significantly diminished CRT exposure

B1: IL-6: recombinant mouse cytokine (protein, UniProt P08505 25-211, looked up)
Interleukin-6: FPTSQVRRGDFTEDTTPNRPVYTTSQVGGLITHVLWEIVEMRKELCNGNSDCMNNDDALAENNLKLPEIQRNDGCYQTGYNQEICLLKISSGLLEYHSYLEYMKNNLKDNKKDKARVLQRDTETLIHIFNQEVKDLHKIVLPTPISNALLTDKLESQKEWLRTKTIQFILKSLEEFLKVTLRSTRQT
LN resident γδ T cells
  IL-17 production by LN-resident γδ T cells in response to recombinant cytokines: failed to produce IL-17
